In patent US20150105252A1, “SUBSTITUTED PYRAZOLES AS HERBICIDES” (E I DU PONT DE NEMOURS AND COMPANY, priority 2013, published 2015):

Key:
wheat = assay: Test A postemergence; format: in vivo, Triticum aestivum
Summary of the method: (§1)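 Growth medium: loam soil blended with sand. Preemergence treatment used a directed soil spray right after planting; postemergence treatment targeted seedlings at one to two leaves (2–10 cm height). Response was judged by eye relative to untreated plants about 10 days later on a 0–100 control scale.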

barnyardgrass [1] = assay: Test C flooded paddy test; format: in vivo, Echinochloa crus-galli; details: Flood
Summary of the method: (§2)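 Visual injury ratings against untreated controls, taken 13 to 15 days after compound was added to paddy water standing 3 cm above the soil.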

ducksalad = assay: Test C flooded paddy test; format: in vivo, Heteranthera limosa; details: Flood
Summary of the method: as §2

morningglory = assay: Test C preemergence; format: in vivo, Ipomoea coccinea; details: for Morningglory plant response rating / Plant response rating, Morningglory: preemergence; for Plant response rating, Morningglory: 125 g ai/ha, scale 0 to 100, 0 = no effect, 100 = complete control; for Plant response rating (scale of 0 to 100), Morningglory: Preemergence
Summary of the method: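 Postemergence values come from plants sprayed at the 1- to 4-leaf stage (2–18 cm) in peat moss–vermiculite medium; preemergence values from seeds treated in a loam–sand blend. Both evaluated visually against controls after 13–15 greenhouse days, scale 0–100.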

sedge, umbrella = assay: Test C flooded paddy test; format: in vivo, Cyperus difformis; details: Flood
Summary of the method: as §2

barnyardgrass [2] = assay: Test A preemergence; format: in vivo, Echinochloa crus-galli; details: preemergence
Summary of the method: as §1

rice = assay: Test C flooded paddy test; format: in vivo, Oryza sativa; details: Flood
Summary of the method: as §2

[3] = Postemergence, 500 g ai/ha, 0 to 100 scale (0 no effect, 100 complete control)
[4] = 62 g ai/ha, scale 0 to 100 (0 no effect, 100 complete control)
[5] = 125 g ai/ha, scale 0 to 100 (0 no effect, 100 complete control)
[6] = 31 g ai/ha, visual rating, scale 0 to 100 (0 no effect, 100 complete control), 13 to 15 days
[7] = 62 g ai/ha, scale 0 to 100 (0 no effect, 100 complete control), 13 to 15 days
[8] = 500 g ai/ha, visual injury after approx. 10 days, 0 to 100 scale (0 no effect, 100 complete control)
[9] = postemergence, 125 g ai/ha, about 10 days, visual rating on 0 to 100 scale (0 no effect, 100 complete control)
[10] = 31 g ai/ha, scale 0 to 100 (0 no effect, 100 complete control)
[11] = 125 g ai/ha, visual injury, 0 to 100 scale, approx. 10 days

Structure (SMILES)	Wheat plant response rating (wheat; [3])	Plant response rating, Barnyardgrass (barnyardgrass [1]; [4])	Plant response rating, Barnyardgrass (barnyardgrass [1]; 250 g ai/ha, scale 0 to 100)	Plant response rating, Ducksalad (ducksalad; [4])	Plant response rating, Ducksalad (ducksalad; 250 g ai/ha, scale 0 to 100)	Morningglory plant response rating (morningglory; [6])	Morningglory plant response rating (morningglory; [7])	Plant response rating, Morningglory (morningglory; 13 to 15 days)	Plant response rating, Sedge, Umbrella (sedge, umbrella; [4])	Plant response rating, Sedge, Umbrella (sedge, umbrella; 250 g ai/ha, scale 0 to 100)	Barnyardgrass plant response rating (barnyardgrass [2]; [8])	Plant response rating, Rice (rice; [4])	Plant response rating, Rice (rice; 250 g ai/ha, scale 0 to 100)	Wheat plant response rating (wheat; [9])	Plant response rating, Barnyardgrass (barnyardgrass [1]; [10])	Plant response rating, Barnyardgrass (barnyardgrass [1]; 125 g ai/ha, scale 0 to 100)	Plant response rating, Ducksalad (ducksalad; [10])	Plant response rating, Ducksalad (ducksalad; 125 g ai/ha, scale 0 to 100)	Plant response rating (scale of 0 to 100), Morningglory (morningglory; 250 g ai/ha)	Plant response rating, Sedge, Umbrella (sedge, umbrella; [10])	other results
CCCc1cc(C(=O)NC2CC2)nn1Cc1ccnc(OC(F)F)c1 [Compound 205]	90	0	35	75	100	100	100	100	75	100	100	0	0								Wheat plant response rating (wheat; Postemergence, 125 g ai/ha, 0 to 100 scale, 0 no effect, 100 complete control): 70; Plant response rating, Barnyardgrass (barnyardgrass [1]; [5]): 25; Plant response rating, Barnyardgrass (barnyardgrass [1]; 500 g ai/ha, scale 0 to 100): 60; Plant response rating, Ducksalad (ducksalad; [5]): 90; Plant response rating, Ducksalad (ducksalad; 500 g ai/ha, scale 0 to 100): 100; Morningglory plant response rating (morningglory; 250 g ai/ha, scale 0 to 100, 0 is no effect, 100 is complete control): 100; Plant response rating, Sedge, Umbrella (sedge, umbrella; [5]): 95; Plant response rating, Sedge, Umbrella (sedge, umbrella; 500 g ai/ha, scale 0 to 100): 100; Barnyardgrass plant response rating (0 to 100 scale, 0 is no effect, 100 is complete control) (barnyardgrass [2]; 125 g ai/ha, visual injury approx. 10 days after treatment): 90; Plant response rating, Rice (rice; [5]): 0; Plant response rating, Rice (rice; 500 g ai/ha, scale 0 to 100): 35
CCCc1cc(C(=O)NCC(F)(F)F)nn1Cc1ccnc(OC(F)F)c1 [Compound 127]	90	0	30	40	80	60	55	100	60	95	90	0	0	80	0	15	30	60	100	50	Plant response rating, Sedge, Umbrella (sedge, umbrella; 125 g ai/ha, scale 0 to 100): 70; Barnyardgrass plant response rating (barnyardgrass [2]; [11]): 90; Plant response rating, Rice (rice; [10]): 0; Plant response rating, Rice (rice; 125 g ai/ha, scale 0 to 100): 0
CCOc1cc(C(=O)NCC(F)(F)F)nn1Cc1ccnc(OC(F)F)c1 [Compound 128]	90	0		75	90	75	70	98	50	85	100	0	0	70	0	35	40	80	100	30	Plant response rating, Sedge, Umbrella (sedge, umbrella; 125 g ai/ha, scale 0 to 100): 75; Barnyardgrass plant response rating (barnyardgrass [2]; [11]): 100; Plant response rating, Rice (rice; [10]): 0; Plant response rating, Rice (rice; 125 g ai/ha, scale 0 to 100): 0
